Target: T1, OGA (Homo sapiens, UniProt O60502)
T1 construct: HEK293 cells inducible for P301L mutant human Tau (isoform 2N4R) were established at Janssen; endogenous in cells; host or cells: HEK293 cells inducible for P301L mutant human Tau (2N4R)
T1 sequence (O60502 1-916): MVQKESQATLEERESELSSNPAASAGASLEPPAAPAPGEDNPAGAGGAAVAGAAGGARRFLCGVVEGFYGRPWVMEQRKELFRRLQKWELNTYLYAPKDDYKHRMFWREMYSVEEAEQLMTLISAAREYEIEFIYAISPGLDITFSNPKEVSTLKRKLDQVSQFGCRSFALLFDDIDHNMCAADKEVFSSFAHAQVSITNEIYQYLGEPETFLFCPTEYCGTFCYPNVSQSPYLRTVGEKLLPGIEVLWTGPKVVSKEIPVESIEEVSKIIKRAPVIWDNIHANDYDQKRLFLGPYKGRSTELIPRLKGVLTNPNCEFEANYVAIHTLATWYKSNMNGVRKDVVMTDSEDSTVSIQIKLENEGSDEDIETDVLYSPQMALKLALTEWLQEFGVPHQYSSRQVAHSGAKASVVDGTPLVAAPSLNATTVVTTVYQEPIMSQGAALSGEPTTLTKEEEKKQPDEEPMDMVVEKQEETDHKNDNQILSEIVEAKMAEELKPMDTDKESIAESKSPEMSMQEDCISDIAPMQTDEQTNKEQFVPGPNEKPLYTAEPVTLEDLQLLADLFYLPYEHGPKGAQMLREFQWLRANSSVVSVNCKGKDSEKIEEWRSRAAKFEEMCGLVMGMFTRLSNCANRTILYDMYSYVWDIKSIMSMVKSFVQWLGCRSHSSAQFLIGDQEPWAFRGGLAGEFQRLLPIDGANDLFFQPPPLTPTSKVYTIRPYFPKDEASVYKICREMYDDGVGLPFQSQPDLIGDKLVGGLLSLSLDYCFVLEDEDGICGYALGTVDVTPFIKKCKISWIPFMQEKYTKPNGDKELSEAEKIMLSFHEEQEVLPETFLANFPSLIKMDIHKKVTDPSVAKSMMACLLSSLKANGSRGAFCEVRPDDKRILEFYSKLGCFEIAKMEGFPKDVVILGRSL
Assay: OGA cellular assay (ICC detection of O-GlcNAcylated proteins in HEK293 cells inducible for P301L mutant human Tau)
Format: cell-based
Settings: 6 hours incubation; for Emax: HEK293, HEK293 cells inducible for P301L mutant human Tau, maximum = Thiamet G 200 uM; for EC50: HEK293 cells inducible for P301L mutant human Tau, read-out: Cellular hOGA, pEC50 (converted)
How it was run: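 HEK293 cells with inducible P301L 2N4R Tau, seeded in low-glucose medium, were exposed to compounds for 6 hours (0.2% DMSO), then PFA-fixed and stained with CTD110.6. Imaging intensity at 488 nm measured O-GlcNAcylation, with Hoechst nuclei counts for toxicity. IC50s came from non-linear regression, with Thiamet G at 200 uM as maximum inhibition.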

Cc1cc(OC2CCN([C@H](C)c3nc4c(cc3F)OCCO4)CC2)cc(C)n1 (single isomer, unassigned) [Compound 148]
Emax: 82%
EC50: 50.1 nM

Cc1cc(OC2CCN([C@H](C)c3nc4c(cc3F)CCO4)CC2)cc(C)n1 (single isomer, unassigned) [Compound 144]
Emax: 81%
EC50: 10 nM

Cc1ncc(OC2CCN(C(C)c3nc4c(cc3F)CCO4)CC2)cn1 (centres unmarked) [Compound 95]
Emax: 92%
EC50: 39.8 nM

Cc1cc(OC2CCN([C@@H](C)c3nc4nc(C)sc4cc3F)CC2)cc(C)n1 (single isomer, unassigned) [Compound 83]
Emax: 86%
EC50: 31.6 nM
